These results are taken from ChEMBL document CHEMBL5131512, “Novel niclosamide-derived adjuvants elevating the efficacy of polymyxin B against MDR Pseudomonas aeruginosa DK2” (Eur J Med Chem, 2022).

In general, MIC refers to the lowest concentration that inhibits growth of the organism.

Values after ≈ are worked out from the molar mass of the structure shown. Active and inactive are the calls of the source. The calls are words filed in the database; no cut-off is given here. Bridge positions count the residues as written; N and C are the ends. Square brackets hold non-standard residues; d marks the D form. Peptide text beside a SMILES is read from it. * marks the point of attachment. X1 = CC[C@H](C)CCCCC(=O)*; Dab = NCC[C@H](N)C(=O)O Bounds are passed on as bounds.

Data set [1] is described as follows: Acute toxicity in ICR mouse assessed as effect on spleen at 50 mg/kg, ip administered as single dose measured after 7 days. Conditions: in vivo, 168 h, time 7 day. It is filed as organism-based.
The subject of data set [2] is Pseudomonas aeruginosa. Kind of data set: Synergistic antibacterial activity against clinical isolate CF333-2007 Pseudomonas aeruginosa DK2 assessed as fractional inhibitory concentration index incubated for 18 hrs in presence of Polymyxin B. It is filed as functional.
The test system of data set [3] is Klebsiella pneumoniae. As to the kind of experiment: Synergistic antibacterial activity against Klebsiella pneumoniae 674 assessed as fold decrease in polymyxin MIC at 8 ug/ml. It is filed as functional. As to conditions: dose 8 µg/ml.
In data set [4] the test system is Pseudomonas aeruginosa. As to the kind of experiment: Suppression of polymyxin drug resistance development against pseudomonas aeruginosa DK2 at 4 ug/ml in presence of polymyxin B after repeated passaging for 14 days. It is filed as functional. Conditions: dose 4 µg/ml; time 14 day.
Data set [5] has as its system Pseudomonas aeruginosa. As to the kind of experiment: Antimicrobial activity against clinical isolate CF333-2007 Pseudomonas aeruginosa DK2 measured after 18 hrs in presence of polymyxin B by microbroth dilution assay. It is filed as functional.
In data set [6] the test system is Pseudomonas aeruginosa. Kind of data set: Synergistic inhibition of PA3552-lux expression in Pseudomonas aeruginosa DK2 at 1 ug/ml measured after 5 to 8 hrs in presence of polymyxin B by microplate reader assay. It is filed as functional, organism-based. Conditions: dose 1.0 µg/ml, time 5-8 hrs.
Data set [7] in a line: Acute toxicity in ICR mouse assessed as effect on heart at 50 mg/kg, ip administered as single dose measured after 7 days. Conditions: in vivo, 168 h, time 7 day. It is filed as organism-based.
Data set [8] relates to Pseudomonas aeruginosa. Kind of data set: Antimicrobial activity against clinical isolate CF333-2007 Pseudomonas aeruginosa DK2 assessed as polymyxin B MIC measured after 18 hrs by microbroth dilution assay. It is filed as functional.
In data set [9] the test system is Escherichia coli. Kind of data set: Synergistic antibacterial activity against Escherichia coli 15017 assessed as polymyxin MIC at 8 ug/ml. It is filed as functional. Conditions: dose 8 µg/ml.
For data set [10], the system named is Pseudomonas aeruginosa. Kind of data set: Inhibition of PA3552-lux expression in Pseudomonas aeruginosa DK2 at 1 ug/ml measured after 5 to 8 hrs by microplate reader assay. It is filed as functional. As to conditions: dose 1.0 µg/ml, time 5-8 hrs.
The test system of data set [11] is Pseudomonas aeruginosa. As to the kind of experiment: Antibacterial activity against Pseudomonas aeruginosa PAO1 assessed as reduction in bacterial growth at 2 ug/ml measured after 24 hrs in presence of polymyxin B by time kill assay. Conditions: dose 2 µg/ml. It is filed as functional.
In data set [12] the test system is Pseudomonas aeruginosa. As to the kind of experiment: Synergistic antibacterial activity against Pseudomonas aeruginosa PAO1 infected in Caenorhabditis elegans N2 worms assessed as worms survival at 4 to 8 ug/ml in presence of polymyxin B. It is filed as functional. As to conditions: dose 4-8 µg/ml; at 4 to 8 µg/mL.
The test system of another data set is Acinetobacter baumannii. Kind of data set: Synergistic antibacterial activity against Acinetobacter baumannii 186 assessed as fold decrease in polymyxin MIC at 8 ug/ml. Conditions: dose 8 µg/ml. It is filed as functional.
Data set [13] in a line: Acute toxicity in ICR mouse assessed as effect on liver at 50 mg/kg, ip administered as single dose measured after 7 days. It is filed as organism-based. As to conditions: in vivo, 168 h, time 7 day.
A short description of data set [14]: Acute toxicity in ICR mouse assessed as mortality at 50 mg/kg, ip administered as single dose measured after 2 hrs. It is filed as organism-based. As to conditions: in vivo, read-out: Activity.
The test system of data set [15] is Klebsiella pneumoniae. As to the kind of experiment: Synergistic antibacterial activity against Klebsiella pneumoniae 674 assessed as polymyxin MIC at 8 ug/ml. It is filed as functional. As to conditions: dose 8 µg/ml.
A short description of data set [16]: Acute toxicity in ICR mouse assessed as effect on lungs at 50 mg/kg, ip administered as single dose measured after 7 days. It is filed as organism-based, Lung. Conditions: in vivo, 168 h, time 7 day.
Data set [17] concerns Pseudomonas aeruginosa. As to the kind of experiment: Antibacterial activity against Pseudomonas aeruginosa PAO1 infected in Caenorhabditis elegans N2 worms assessed as colonization of bacteria on intestinal tract at 8 ug/ml in presence of polymyxin B. It is filed as functional, organism-based. Conditions: dose 8.0 µg/ml.
The subject of data set [18] is Pseudomonas aeruginosa. As to the kind of experiment: Antibacterial activity against Pseudomonas aeruginosa DK2 assessed as reduction in bacterial growth at 4 ug/ml measured after 24 hrs in presence […] of polymyxin B by time kill assay. It is filed as functional. As to conditions: dose 4 µg/ml.
A short description of data set [19]: Acute toxicity in ICR mouse assessed as effect on kidney at 50 mg/kg, ip administered as single dose measured after 7 days. It is filed as organism-based. Conditions: in vivo, 168 h, time 7 day.
Data set [20] is described as follows: Acute toxicity in ICR mouse assessed as mortality at 50 mg/kg, ip administered as single dose. It is filed as organism-based. Conditions: in vivo.
The subject of data set [21] is Escherichia coli. Kind of data set: Synergistic antibacterial activity against Escherichia coli 15017 assessed as fold decrease in polymyxin MIC at 8 ug/ml. It is filed as functional. Conditions: dose 8 µg/ml.
The nature of data set [22]: Acute toxicity in ICR mouse assessed as effect on body weight at 50 mg/kg, ip administered as single dose measured daily for 7 days. It is filed as organism-based. As to conditions: in vivo, 168 h, time 7 day.
In data set [23] the test system is Pseudomonas aeruginosa. Kind of data set: Antimicrobial activity against clinical isolate CF333-2007 Pseudomonas aeruginosa DK2 measured after 18 hrs by microbroth dilution assay. It is filed as functional.
For data set [24], the system named is Pseudomonas aeruginosa. As to the kind of experiment: Antibacterial activity against Pseudomonas aeruginosa DK2 assessed as reduction in bacterial growth at 0.5 ug/ml measured after 24 hrs by time kill assay. It is filed as functional. Conditions: dose 0.5 µg/ml.
In data set [25] the test system is Pseudomonas aeruginosa. Kind of data set: Antibacterial activity against Pseudomonas aeruginosa PAO1 infected in Caenorhabditis elegans N2 worms at 16 ug/ml. It is filed as functional, organism-based. As to conditions: dose 16.0 µg/ml.
The subject of data set [26] is Pseudomonas aeruginosa. Kind of data set: Drug resistance against pseudomonas aeruginosa DK2 assessed as increase in MIC measured after repeated passaging for 14 days. It is filed as functional. As to conditions: DK2, 336 h, time 14 day.
Data set [27] has as its system Pseudomonas aeruginosa. Kind of data set: Drug resistance against pseudomonas aeruginosa DK2 assessed as fold increase in MIC measured after repeated passaging for 14 days. As to conditions: time 14 day. It is filed as functional.

In the case of `O=C(Nc1ccc([N+](=O)[O-])cc1Cl)c1cc(F)ccc1O`, the Activity result in data set [1] is recorded as “Non-Toxic”; with Pseudomonas aeruginosa [4], 100%; in data set [7], “Non-Toxic”; with Pseudomonas aeruginosa [11] it was above 5 log10CFU/ml; in [13], “Non-Toxic”; in data set [16], “Non-Toxic”. Also, the Activity in the data set with Pseudomonas aeruginosa [18] is recorded as 2.88 log10CFU/ml; in data set [19], “Non-Toxic”; in [20], “Non-Toxic”; in [22] it was “Non-Toxic”. The “fractional inhibitory concentration index (FICI)” value in the data set with Pseudomonas aeruginosa [2] came out at 0.008. Also, the “fold change (FC)” value with Klebsiella pneumoniae [3] is 256; with Acinetobacter baumannii, 16; in the data set with Escherichia coli [21] it was 16. The minimum inhibitory concentration (MIC) with Pseudomonas aeruginosa [5] is 4 µg/mL; with Pseudomonas aeruginosa [8] it was 1 µg/mL; with Escherichia coli [9], 0.25 µg/mL; with Klebsiella pneumoniae [15], 1 µg/mL; with Pseudomonas aeruginosa [23] it was above 1020 µg/mL. The inhibition result in the data set with Pseudomonas aeruginosa [6] and in the data set on Pseudomonas aeruginosa [10] was “Active” each time. In the data set on Pseudomonas aeruginosa [12], the Survival stood at 7.31%. Further, the mortality at 2 h in data set [14] came out at 80%. The result in the data set with Pseudomonas aeruginosa [17] was Active.
For the compound `Cc1ccc(O)c(C(=O)Nc2ccc([N+](=O)[O-])cc2Cl)c1`, the “fractional inhibitory concentration index (FICI)” value in the data set on Pseudomonas aeruginosa [2] came out at 0.017. Moreover, the MIC in the data set with Pseudomonas aeruginosa [5] was 1 µg/mL; with Pseudomonas aeruginosa [8] it was 4 µg/mL; in the data set with Pseudomonas aeruginosa [23], above 1020 µg/mL.
Take `O=C(Nc1ccc([N+](=O)[O-])cc1Cl)c1ccc(Br)cc1O`: the “fractional inhibitory concentration index (FICI)” value with Pseudomonas aeruginosa [2] is given as 0.012. Moreover, the figures for the MIC in the data set on Pseudomonas aeruginosa [5], in the data set with Pseudomonas aeruginosa [8] and in the data set on Pseudomonas aeruginosa [23] were 8 µg/mL, 1 µg/mL and above 1020 µg/mL, respectively.
In the case of `CC[C@H](C)CCCCC(=O)N[C@@H](CCN)C(=O)N[C@H](C(=O)N[C@@H](CCN)C(=O)N[C@H]1CCNC(=O)[C@H]([C@@H](C)O)NC(=O)[C@H](CCN)NC(=O)[C@H](CCN)NC(=O)[C@H](CC(C)C)NC(=O)[C@@H](Cc2ccccc2)NC(=O)[C@H](CCN)NC1=O)[C@@H](C)O` (X1-[Dab]T[Dab][Dab][Dab][dF]L[Dab][Dab]T; lactam 4-C), in the data set with Pseudomonas aeruginosa [24], the Activity was 6.38 log10CFU/ml. Besides, in the data set with Pseudomonas aeruginosa [25], the outcome was Active. In addition, the results for the MIC with Pseudomonas aeruginosa [26] and against Pseudomonas aeruginosa [23] were 8190 µg/mL and 256 µg/mL (≈ 213 µM), respectively. In addition, the “fold change (FC)” value in the data set with Pseudomonas aeruginosa [27] amounted to 32.
Take `O=C(Nc1ccc([N+](=O)[O-])cc1Cl)c1cc(Cl)ccc1OC(=O)[C@@H]1CCCN1`: the “fractional inhibitory concentration index (FICI)” value in the data set on Pseudomonas aeruginosa [2] is listed as 0.078. Besides, the figures for the minimal inhibitory concentration (MIC) in the data set with Pseudomonas aeruginosa [5], with Pseudomonas aeruginosa [8] and in the data set on Pseudomonas aeruginosa [23] were 16 µg/mL, 16 µg/mL and above 1020 µg/mL, respectively.
As to `O=C(Nc1ccccc1Cl)c1cc(Cl)ccc1O`, in the data set on Pseudomonas aeruginosa [2], the “fractional inhibitory concentration index (FICI)” value was found to be 0.012. Moreover, the figures for the MIC in the data set with Pseudomonas aeruginosa [5], with Pseudomonas aeruginosa [8] and against Pseudomonas aeruginosa [23] were 4 µg/mL, 2 µg/mL and above 1020 µg/mL, respectively.
Turning to `O=C(Nc1cc(Cl)ccc1O)c1ccc([N+](=O)[O-])cc1Cl`, in the data set with Pseudomonas aeruginosa [2], the “fractional inhibitory concentration index (FICI)” value is reported as 0.031. Also, the MIC in the data set with Pseudomonas aeruginosa [5] is 16 µg/mL; in the data set on Pseudomonas aeruginosa [8] it was 4 µg/mL; in the data set on Pseudomonas aeruginosa [23] it was above 1020 µg/mL.
Turning to `O=C(Nc1ccc([N+](=O)[O-])cc1Cl)c1cc(C(F)(F)F)ccc1O`, in the data set with Pseudomonas aeruginosa [2], the “fractional inhibitory concentration index (FICI)” value was 0.023. Besides, the figures for the MIC in the data set on Pseudomonas aeruginosa [5], with Pseudomonas aeruginosa [8] and against Pseudomonas aeruginosa [23] were 16 µg/mL, 2 µg/mL and above 1020 µg/mL, respectively.
Take `O=C(Nc1ccc([N+](=O)[O-])cc1Cl)c1cc(Br)ccc1O`: the “fractional inhibitory concentration index (FICI)” value with Pseudomonas aeruginosa [2] came to 0.066. Moreover, the MIC with Pseudomonas aeruginosa [5] is 32 µg/mL; in the data set with Pseudomonas aeruginosa [8], 1 µg/mL; against Pseudomonas aeruginosa [23], above 1020 µg/mL.
The like results for `O=C(Nc1ccc([N+](=O)[O-])cc1Cl)c1ccccc1O` were, in that order, 0.01, 2 µg/mL, 2 µg/mL and above 1020 µg/mL.
In the same order, the values of `O=C(Nc1ccc([N+](=O)[O-])cc1Cl)c1cc(F)c(F)cc1O` are 0.012, 8 µg/mL, 1 µg/mL and above 1020 µg/mL.
On to `Nc1ccc(NC(=O)c2cc(Cl)ccc2O)c(Cl)c1`, for which the “fractional inhibitory concentration index (FICI)” value in the data set with Pseudomonas aeruginosa [2] was 0.047. Also, the minimum inhibitory concentration (MIC) in the data set with Pseudomonas aeruginosa [5] was 16 µg/mL; in the data set on Pseudomonas aeruginosa [8], 8 µg/mL; against Pseudomonas aeruginosa [23], above 1020 µg/mL.
On to `O=C(Nc1ccc([N+](=O)[O-])cc1Cl)c1cc(Cl)ccc1O[C@H]1O[C@H](CO)[C@H](O)[C@H](O)[C@H]1O`, for which the “fractional inhibitory concentration index (FICI)” value in the data set on Pseudomonas aeruginosa [2] came out at 0.094. Moreover, the MIC with Pseudomonas aeruginosa [5] is 32 µg/mL; in the data set with Pseudomonas aeruginosa [8] it was 16 µg/mL; in the data set with Pseudomonas aeruginosa [23], above 1020 µg/mL.
